IC50 data for 3 compounds are collected here from patent US5318970A, “Isoxazole compounds, pharmaceutically acceptable salts thereof and medical uses thereof” (Taiho Pharmaceutical Co., Ltd., priority 1990, dated 1994).

For one experiment, the target named is Cyclooxygenase. The experiment is described as follows: Cyclooxygenase inhibitory effect (14C-arachidonic acid to prostaglandin E2, seminal vesicular gland microsomes). The class given is biochemical. The following applies: prostaglandin E2 by thin layer chromatography. How it is done:
(1) Cyclooxygenase Inhibitory effect
This assay was carried out by the method described in Russell J. Taylor et al., Biochem. Pharmacol., 25, 2479-2484 (1976).
^14 C-arachidonic acid was reacted with seminal vesicular gland microsomes and the test drugs at various concentrations over a predetermined period of time and the obtained prostaglandin E2 was separated by thin layer chromatography. The radioactivity of prostaglandin E2 was determined by liquid scintillation counter. The IC50 values were calculated by the comparison with the radioactivity of the control.

In another experiment the target is T1, 5-Lipoxygenase (Cavia porcellus, UniProt A0A286X958).
T1 construct: the polymorphonuclear leukocytes were collected and the cytosol fraction was obtained as an enzyme source; endogenous in cells; host or cells: guinea pig peritoneal polymorphonuclear leukocytes (casein-elicited), cytosol fraction
T1 sequence (A0A286X958 1-674): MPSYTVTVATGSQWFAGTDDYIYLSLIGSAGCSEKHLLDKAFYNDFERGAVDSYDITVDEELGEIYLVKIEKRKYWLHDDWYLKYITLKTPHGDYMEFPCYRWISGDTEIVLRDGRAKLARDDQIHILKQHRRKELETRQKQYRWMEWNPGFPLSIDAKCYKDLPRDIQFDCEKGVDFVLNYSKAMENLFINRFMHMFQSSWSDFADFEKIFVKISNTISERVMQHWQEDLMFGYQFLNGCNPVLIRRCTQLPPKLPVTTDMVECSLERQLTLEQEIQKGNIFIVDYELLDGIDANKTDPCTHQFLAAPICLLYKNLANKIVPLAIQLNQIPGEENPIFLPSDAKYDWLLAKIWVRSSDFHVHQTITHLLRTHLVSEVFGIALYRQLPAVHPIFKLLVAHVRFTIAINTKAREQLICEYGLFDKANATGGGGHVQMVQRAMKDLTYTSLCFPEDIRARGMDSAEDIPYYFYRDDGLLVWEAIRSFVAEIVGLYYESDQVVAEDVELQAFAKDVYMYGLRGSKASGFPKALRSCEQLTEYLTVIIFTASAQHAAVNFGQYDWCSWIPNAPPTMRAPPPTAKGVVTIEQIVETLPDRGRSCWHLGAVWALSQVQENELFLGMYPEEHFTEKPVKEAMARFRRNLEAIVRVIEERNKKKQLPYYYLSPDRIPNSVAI
The experiment is described as follows: 5-Lipoxygenase inhibitory effect (14C-arachidonic acid to 5-hydroxyeicosatetraenoic acid, cytosol of polymorphonuclear leukocytes). It is filed as biochemical. The following applies: guinea pig polymorphonuclear leukocyte cytosol; 5-hydroxyeicosatetraenoic acid by thin layer chromatography. The procedure:
(2) 5-Lipoxygenase inhibitory effect
The assay was carried out by the method described in Kenkichi Ochi et al., J. Biol. Chem., 258, 5754-5758 (1983).
Casein was injected into the abdominal cavity of a guinea pig, and the polymorphonuclear leukocytes were collected and the cytosol fraction was obtained as an enzyme source. ^14 C-arachidonic acid was reacted with the enzyme and the test drugs at various concentrations over a predetermined period of time. The obtained 5-hydroxyeicosatetraenoic acid was separated by thin layer chromatography and the radioactivity was determined. The IC50 values were calculated by the comparison with the radioactivity of the control.

Regarding `CCCCCCCCCCN1CCN(C(=O)CNC(=O)Cc2onc(-c3ccc(OC)cc3)c2-c2ccc(OC)cc2)CC1` [Compound 8], the IC50 (usually the concentration that inhibits the measured activity by half) is 66 nM against Cyclooxygenase and 5900 nM against 5-Lipoxygenase.
As to `COc1ccc(-c2noc(CC(=O)NCCN3CCN(CCCCCCCCCCO)CC3)c2-c2ccc(OC)cc2)cc1` [Compound 6], the IC50 at Cyclooxygenase was determined as 121 nM; against 5-Lipoxygenase, 1800 nM.
Take `COc1ccc(-c2noc(CC(=O)NC(CN3CCN(CCCCCCCCCCO)CC3)c3ccccc3)c2-c2ccc(OC)cc2)cc1` (stereo not drawn) [Compound 7]: the figures for the IC50 against Cyclooxygenase and against 5-Lipoxygenase were 146 nM and 2500 nM, respectively.
